Test results taken from patent US12558329B2 (New York University, priority 2021, dated 2026).
Entries after “also recorded” stand apart in the source; their conditions may differ.

System: MIAPACA2 cells
Assay: 13C9-Tyr tracing in MIAPACA2 cells with the indicated reagents
Assay type: cell-based, human
Description: 4-HMA biosynthesis has only been described in some bacteria and in rabbits. […] The production of 4-HPPA occurs in the first step of tyrosine (Tyr) catabolism via tyrosine transaminase (TAT). In rabbits, 4-HMA was proposed to be synthesized from the degradation of tyramine and octopamine by dopamine β-hydroxylase (Dbh) and monoamine oxidase (Mao) (FIG. 9A)^13. Tyramine is also a Tyr-derived metabolite. Therefore, all known substrates required to generate 4-HMA are derived from Tyr. In addition, Tyr can also be made from phenylalanine (Phe) by Phe hydroxylase (PAH) in mammalian liver cells^14. To elucidate the human 4-HMA biosynthetic pathway, the fates of ^13C9-Tyr and ^13C6-Phe were traced in human cells. […] Additionally, the generation of 4-HMA by […] would result in the incorporation of a single ^18O at the Ca position of the carboxylic acid of 4-HMA (FIG. 9A). However, this was not observed by ^18O labelling (FIG. 8B). Therefore, it was unlikely that 4-HMA biosynthesis from octopamine and tyramine catabolism occurred in the present system.
Unexpectedly, 4-HMA levels also were lower in hyperoxic (21%) conditions compared to 3% O2, reflecting either decreased production or increased consumption of this metabolite at 21% O2.
Therefore, CoQ10 was used as an indirect readout of 4-HB production. To assess the ability of human cells to biosynthesize CoQ10, cells were labelled with ^13C6-Phe or ^13C9-Tyr. CoQ10 was completely biosynthesized from Tyr, but not Phe, in human cells (FIG. 11B).
For metabolomics, briefly, cells were washed in 4° C. 0.9% saline and metabolites were extracted with 46% methanol:23% H2O:[…] chloroform that contained a labelled amino acid standard mix (MSK-A2-1.2, Cambridge Isotope Laboratories, Inc.). Enzymatic assay samples were extracted using 80% methanol: 20% H2O that contained labelled amino acid standards. Extracts were placed into 1.5 mL Eppendorf tubes, vortexed at 4° C. for 10 min and centrifuged at 4° C. for 10 min at 17,200×g in a microcentrifuge. The aqueous phase was transferred to vials for GC-MS or Eppendorf tubes for LC-MS. Polar samples were evaporated in a SpeedVac and samples were resolved by GC-MS or LC-MS. Lipid samples were dried using a stream of N2 (for ^18O labelling studies) or air. Metabolite and lipid extracts were submitted to the NYULMC Metabolomics Core Resource Laboratory.
For polar metabolomics, the LC column was a Millipore ZIC-pHILIC (2.1×150 […], 5 μm bead size) coupled to a Dionex UltiMate 3000 system. The column oven temperature was held at 25° C. The flow rate was 100 μL/min, and the injection volume was 1 μL. Buffer A was 10 mM ammonium carbonate in water, pH 9, and Buffer B was neat acetonitrile. The gradient profile was 80-20% B (0-30 min), 20-80% B (30-31 min), and 80-80% B (31-42 min). MS Analyses were carried out on a Thermo Q Exactive HF mass spectrometer using a heated electrospray ionization (HESI) source. The method duration was 30 min using a polarity-switching, top 5 method. The spray voltage for both positive and negative ion modes was 3.5 kV. The capillary temperature was 320° C. with a maximum spray current of 100 ρA. The full MS scan was carried out at 120,000 resolution with a scan range of 67-1000 m/z. For ^18O2 labelling experiments, full MS scans were carried out at 240,000 resolution at the same scan range. Tandem MS spectra were obtained at 15,000 resolution. All data were acquired in profile mode. Peak heights were analyzed using Xcalibur (ThermoFisher Scientific).
Lipid metabolomics were acquired using a Waters CSH-C18 (2.1×100 mm, 1.7 μm) column coupled to a Dionex UltiMate 3000 system. The column oven temperature was held at 55° C. The flow rate was 300 μL/min and the injection volume was 1 μL. Buffer A was 60:40 acetonitrile:water, 0.1% formic acid and Buffer B was 90:10 isopropanol:acetonitrile, 10 mM ammonium formate. […]

O=C(O)c1ccc(O)c2ncccc12 [IOX1]
13C9-Tyr-derived 4-HMA (3% 16O2, 24 hours): attenuated or ablated; also recorded: severely inhibited
CoQ10 labelling from 13C9-Tyr (incorporation of tyrosine into CoQ10) (3% 16O2, 24 hours): eliminated; also recorded: completely blocked
4-HPLA pools (13C-Tyr, 3% O2, 24 hours): increased
